Assay results as given in patent US20230172933A1, “USE OF A COMPOUND OR COMPOSITION COMPRISING AN INHIBITOR OF NLRP1 INFLAMMASOME ACTIVATION FOR THE TREATMENT OF HUMAN AIRWAY INFLAMMATION” (Nanyang Technological University, priority 2020, published 2023).
“Also recorded” adds a separate entry of the source.

Assays:
[1] = system: endogenous NLRP1 inflammasome; assay: Endogenous NLRP1 inflammasome in doxycycline-induced Tet-ON HRV14-3Cpro N/TERT keratinocytes; format: cell-based, human
NLRP1 = NLRP1 self-oligomerization (BN-PAGE) and cleavage fragment (SDS-PAGE/Western blot) in 293T-NLRP1-FLAG cells transfected with HRV14-3Cpro; format: cell-based, human
HRV16 = assay: VP2 maturation in HRV16-infected NHBEs (Western blot); format: cell-based, HRV-A16; conditions: 48 hours post inoculation, MLN4924 1 μM
Protocol: (A) Endogenous NLRP1, ASC and caspase-1 are indispensable for HRV16-induced IL-18 secretion in NHBEs. Cas9-control, NLRP1, ASC and CASP1 KO NHBEs were infected with HRV16 as before. Conditioned media were harvested 48 hours post-infection. (B) NLRP1 is genetically required for HRV16-induced IL-18 cleavage and ASC oligomerization. Cas9 control, NLRP1 and ASC KO NHBEs were infected with HRV16 as before. Cleaved IL-18 are marked with arrows. (C) Mutating the NLRP1 cleavage site abrogates HRV16-triggered IL-18 secretion in NHBEs. NLRP1 KO NHBEs were rescued with lentiviral constructs expressing FLAG-tagged NLRP1^WT or NLRP1^Q130A, which carried silent mutations at the PAM sites. The rescued cells were infected with HRV16 or treated with Talabostat. Conditioned media was analyzed by IL-18 ELISA. **P<0.01, ***P<0.001, n=3 replicates from one of two independent infections. (D) Q130A abrogates NLRP1 cleavage, IL-18 maturation and ASC oligomerization in NHBEs. NLRP1 KO or NLRP1^WT- or NLRP1^Q130A-rescued cells were infected with HRV16 or treated with Talabostat. Cells were harvested 48 hours post infection. […] IL-18 levels were measured with ELISA. ****, p<0.0001 (Two-way ANOVA), n=3 independent infections/treatment. […] Lysates from HRV16-infected NHBEs in FIGS. 9E-F were analyzed by Western blot 48 hours post HRV16 inoculation. […]

NLRP1 inflammasome = assay: Talabostat-induced IL-1β secretion in N/TERT keratinocytes; format: cell-based, human; conditions: ELISA of conditioned media
[2] = system: NLRP1 inflammasome in Talabostat-treated NHBEs; assay: Talabostat-induced IL-1β and IL-18 secretion in NHBEs (ELISA); format: cell-based, human; conditions: Talabostat 2 μM, pre-treated: MLN4924 1 μM, MCC950 5 μM, Rupintrivir 10 nM
Protocol: (§1) (A) Expression levels of NLRP1 vs. NLRP3 (RNAseq FKPM) in NHBEs. n=21, independent cultures of pooled NHBEs from healthy donors. (B) Expression of NLRP1 vs. NLRP3 in healthy human nasal biopsy. Puncta: positive staining by RNAscope. Nuclei staining: hematoxylin. (C) Overview of cytokine profiling of by HRV16-infected and Talabostat-treated NHBEs. (D) Cells were inoculated with HRV16 at MOI=5 and cultured at 33° C. for 48 hours. Luminex array was performed on conditioned media after removing cell debris. n=3 independent infections and treatment. Cytokines/chemokines that were induced at least 5 fold (p<0.05, Student's t test, lognormal values) are represented by square boxes. […] NHBEs were pretreated with MCC950 (5 μM) or Rupintrivir (10 nM) before HRV16 inoculation or Talabostat (2 μM) treatment. […] (G) Overview of apical HRV infection 3D human bronchial epithelial cultures. (H) Alcian blue (AB)/periodic acid-Schiff (PAS) staining of HRV16-infected (MOI=3) and Talabostat (2 μM)-treated 3D human bronchial epithelial cultures. (1) IL-18 level in apical or basal media 48 hours post-infection or Talabostat treatment. **P<0.01, ***P<0.001, ****P<0.0001 (Two-way ANOVA). n=3 independent infected/treated cultures. (J) Secretion of cleaved IL-1β and IL-18 and ASC oligomerization in HRV16-infected primary NHBEs. Cells were inoculated with HRV16 (MOI=5) or treated with Talabostat (2 μM) for 48 hours at 33° C.
(A) Endogenous NLRP1, ASC and caspase-1 are indispensable for HRV16-induced IL-18 secretion in NHBEs. Cas9-control, NLRP1, ASC and CASP1 KO NHBEs were infected with HRV16 as before. Conditioned media were harvested 48 hours post-infection. (B) NLRP1 is genetically required for HRV16-induced IL-18 cleavage and ASC oligomerization. Cas9 control, NLRP1 and ASC KO NHBEs were infected with HRV16 as before. Cleaved IL-18 are marked with arrows. […] Conditioned media was analyzed by IL-18 ELISA. **P<0.01, ***P<0.001, n=3 replicates from one of two independent infections. […] IL-18 levels were measured with ELISA. ****, p<0.0001 (Two-way ANOVA), n=3 independent infections/treatment. […] Lysates from HRV16-infected NHBEs in FIGS. 9E-F were analyzed by Western blot 48 hours post HRV16 inoculation.
(§2) The following antibodies were used in this study: c-Myc (Santa Cruz Biotechnology #sc-40), HA tag (Santa Cruz Biotechnology, #sc-805), GAPDH (Santa Cruz Biotechnology, #sc-47724), ASC (Adipogen, #AL-177), CASP1 (Santa Cruz Biotechnology, #sc-622), IL1B (R&D systems, #AF-201), FLAG (SigmaAldrich, #F3165), GFP (Abcam, #ab290), NLRP1 (R&D systems, #AF6788), IL18 (Abcam ab207324) and VP2 (QED Bioscience, #18758). HRV16-3Cpro was detected by rabbit serum, a kind gift from Dr. Ann Palmenberg and Dr. James Gern (University of Wisconsin). […]

human NLRP1 inflammasome = assay: HRV14-3Cpro-induced ASC-GFP speck formation in 293T-ASC-GFP-NLRP1-FLAG reporter cells; format: cell-based; conditions: 293T-ASC-GFP-NLRP1-FLAG cells transfected with HRV14-3Cpro; MLN4924 1 μM, MG132 2.5 μM, Bortezomib 0.5 μM, phenylalanine 1 mM; 24 hours
[3] = system: NLRP1 inflammasome in HRV16-infected NHBEs; assay: HRV16-induced IL-1β and IL-18 secretion in NHBEs (ELISA); format: cell-based, human; conditions: HRV16 MOI=5, 33° C., 48 hours, pre-treated: MLN4924 1 μM, Bortezomib 1 μM, MCC950 5 μM, Rupintrivir 10 nM
Protocol: as §1
(A) Endogenous NLRP1, ASC and caspase-1 are indispensable for HRV16-induced IL-18 secretion in NHBEs. Cas9-control, NLRP1, ASC and CASP1 KO NHBEs were infected with HRV16 as before. Conditioned media were harvested 48 hours post-infection. (B) NLRP1 is genetically required for HRV16-induced IL-18 cleavage and ASC oligomerization. Cas9 control, NLRP1 and ASC KO NHBEs were infected with HRV16 as before. Cleaved IL-18 are marked with arrows. (C) Mutating the NLRP1 cleavage site abrogates HRV16-triggered IL-18 secretion in NHBEs. NLRP1 KO NHBEs were rescued with lentiviral constructs expressing FLAG-tagged NLRP1^WT or NLRP1^Q130A, which carried silent mutations at the PAM sites. The rescued cells were infected with HRV16 or treated with Talabostat. Conditioned media was analyzed by IL-18 ELISA. **P<0.01, ***P<0.001, n=3 replicates from one of two independent infections. (D) Q130A abrogates NLRP1 cleavage, IL-18 maturation and ASC oligomerization in NHBEs. NLRP1 KO or NLRP1^WT- or NLRP1^Q130A-rescued cells were infected with HRV16 or treated with Talabostat. Cells were harvested 48 hours post infection. Arrow: NLRP1 cleavage product in lane 8 HRV16. *: Non-specific NLRP1 degradation product that occurs right below the a.a. 131-1213 cleavage fragment. See also FIG. 3E, 5E, 5D. (E) MLN4924 and Bortezomib blocks HRV16-induced IL-18 secretion. NHBEs were pre-treated with MLN4924 (1 μM) or Bortezomib (1 μM) before HRV16 infection or Talabostat treatment. IL-18 levels were measured with ELISA. ****, p<0.0001 (Two-way ANOVA), n=3 independent infections/treatment. (F) MLN4924 and Bortezomib blocks HRV16-induced IL-1β secretion. […] Lysates from HRV16-infected NHBEs in FIGS. 9E-F were analyzed by Western blot 48 hours post HRV16 inoculation.
as §2, with “Wisconsin). Cytokine and chemokine measurements were carried out with human IL-1B ELISA kit (BD, #557953), human IL-18 ELISA kit (MBL Bioscience, #7620) and Immune Monitoring 65-Plex Human ProcartaPlex™ Panel (ThermoFisher EPX650-10065-901).” for “Wisconsin).”

N/TERT cells = assay: Mode of cell death of N/TERT cells by Annexin V and PI inclusion; format: cell-based, human; conditions: Talabostat-treated N/TERT cells; marked by PI inclusion
Protocol: (A) Expression of Myc-tagged viral proteases in 293T-ASC-GFP-NLRP1-FLAG cells. Two exposure times were shown. Note that Myc-HRV16-3Cpro was lowly expressed but could activate ASC-GFP specks. (B) Representative wide-field fluorescent images of ASC-GFP specks, NLRP1-HA and Myc-tagged proteases. 293T-ASC-GFP cells were co-transfected with NLRP1-HA and Myc-tagged gZiPro, HRV14-3Cpro or HRV14-3Cpro^C146A and fixed 24 hours post transfection. (C) Validation of ASC KO in N/TERT cells. ASC KO #2 was chosen for further experiments. (E) N/TERT KO cells were transfected with the indicated 3Cpro variants and harvested 24 hours post transfection. Conditioned media was analyzed by IL-1β ELISA. **P<0.01 (Two-way ANOVA). n=3 independent transfections. (F) Modes of cell death of Talabostat-treated, or doxycycline-induced Tet-ON HRV14-3Cpro N/TERT cells assayed […] and PI inclusion. Data are representative of one of two independent experiments.
This provides a robust cellular system to determine if 3Cpros can activate the endogenous NLRP1 inflammasome. […] Live-cell imaging of human keratinocytes expressing GFP-tagged ASC further corroborated that HRV14-3Cpro could induce ASC-GFP speck formation (FIG. 1F). […]

human NLRP1 = assay: ASC-GFP speck formation in 293T-ASC-GFP-NLRP1-FLAG cells after Talabostat treatment; format: cell-based; conditions: Talabostat 2 μM, 24 hrs, compared to vector-transfected cells
NHBEs = assay: Cytokine response of Talabostat-treated NHBEs (Luminex array, ELISA); format: cell-based, human
Protocol: (A) Expression levels of NLRP1 vs. NLRP3 (RNAseq FKPM) in NHBEs. n=21, independent cultures of pooled NHBEs from healthy donors. (B) Expression of NLRP1 vs. NLRP3 in healthy human nasal biopsy. Puncta: positive staining by RNAscope. Nuclei staining: hematoxylin. (C) Overview of cytokine profiling of by HRV16-infected and Talabostat-treated NHBEs. (D) Cells were inoculated with HRV16 at MOI=5 and cultured at 33° C. for 48 hours. Luminex array was performed on conditioned media after removing cell debris. n=3 independent infections and treatment. Cytokines/chemokines that were induced at least 5 fold (p<0.05, Student's t test, lognormal values) are represented by square boxes. […] NHBEs were pretreated with MCC950 (5 μM) or Rupintrivir (10 nM) before HRV16 inoculation or Talabostat (2 μM) treatment. […]
as §2

[4] = system: 3D human bronchial epithelial cultures; assay: Talabostat treatment of 3D human bronchial epithelial cultures; format: cell-based; conditions: Talabostat 2 μM
Protocol: as §1, with “Cells were inoculated with HRV16 (MOI=5) or treated with Talabostat (2 μM) for 48 hours at 33° C.” left out

SMILES: NS(=O)(=O)OC[C@@H]1C[C@@H](n2ccc3c(N[C@H]4CCc5ccccc54)ncnc32)C[C@@H]1O [MLN4924, ((1S,2S,4R)-4-(4-(((S)-2,3-dihydro-1H-inden-1-yl)amino)-7H-pyrrolo[2,3-d]pyrimidin-7-yl)-2-hydroxycyclopentyl)methyl sulfamate]
- ASC oligomerization upon HRV14-3Cpro induction ([1]; doxycycline 24 hours): completely blocked
- mature IL-1β secretion upon HRV14-3Cpro induction ([1]; doxycycline 24 hours, Western blot, ELISA): completely blocked
- endogenous 3Cpro-induced NLRP1 inflammasome and pyroptosis ([1]; doxycycline with drug for 24 hours): inhibits
- stabilization of the post-cleavage NLRP1 fragment ([1]; fragment below detection limit in untreated cells): stabilized
- stabilization of the post-cleavage NLRP1 fragment (a.a. 131-1213) (NLRP1; 293T-NLRP1-FLAG cells transfected with HRV14-3Cpro, Western blot): led to the stabilization
- HRV14-3Cpro-induced NLRP1 self-oligomerization (NLRP1; 293T-NLRP1-FLAG cells, BN-PAGE, drugs for 24 hours, MG132 2.5 μM): similarly blocked; also recorded: inhibits
- accumulation of mature capsid protein VP2 (3Cpro-dependent VP2 maturation) (HRV16): did not affect; also recorded: does not affect
- Talabostat-induced IL-1β secretion (NLRP1 inflammasome): much less dramatic effect
- Talabostat-induced IL-1β secretion [2]: only had a modest effect
- Talabostat-induced IL-18 secretion [2]: did not affect
- HRV14-3Cpro-induced ASC-GFP speck formation (human NLRP1 inflammasome): blocked; also recorded: abrogate
- HRV16-induced IL-1β secretion [3]: completely blocked; also recorded: blocks
- HRV16-induced IL-18 secretion [3]: completely blocked; also recorded: blocks

SMILES: CC(C)[C@H](N)C(=O)N1CCC[C@H]1B(O)O [Talabostat]
- mode of cell death (N/TERT cells): exclusively caused lytic cell death
- percentage of cells forming ASC-GFP specks (human NLRP1): significant increase
- IL-1β secretion (NHBEs; ELISA): significantly secreted
- IL-18 induction (cytokine profiling) (NHBEs; Luminex array on conditioned media): most highly induced cytokine
- epithelium morphology (Alcian blue/PAS staining) [4]: significant disruption of the epithelium, increased mucin production and goblet cell engorgement
- IL-18 level in apical or basal media ([4]; 48 hours): led to IL-18 secretion in both the apical and basal media
